# Data taken from patent publication US11130762B2, “Azaaryl derivative, preparation method therefor, and application thereof for use in pharmacy” (Abbisko Therapeutics Co., Ltd., priority 2017, dated 2021).
# Where two headings read alike, the source gives them in different places.
# Key:
# CSF-1R = CSF-1R (Homo sapiens, UniProt P07333); assay: CSF-1R in vitro biochemical kinase study (ADP-Glo assay); settings: 500 μM ATP, * = average of multiple tests, read-out: Enzymatic experiment CSF1R IC50
# Experimental: A. CSF-1R In Vitro Biochemical Kinase Study
# In the present invention, the inhibitory activity of compounds against the CSF-1R activity was determined by using CSF-1R ADP-Glo assay. The compound-mediated inhibition effect was achieved by inhibiting the production of ADP from consumption of ATP, and the activities of compounds were evaluated by using the ADP-Glo kit (Promega, cat. No. V9101). The specific experimental process was as follows:
# 1. The kinase reaction performed in the present invention was carried out in a 384-well plate (Perkinelmer, cat. No. 6007290), 3.95 nM of CSF-1R, 500 μM of ATP, and 0.2 mg/mL of polypeptide (Poly (Glu4, Try1), Sigma, cat. No. P0275) were respectively weighed and added to each well:
# 2. following reagents were then added to each well to reach the final reaction system: 40 mM Tris, pH 7.5, 20 mM MgCl2, 0.01% Triton X-100, 0.1 mg/mL BSA, 2.5 mM DTT, and 0.1% DMSO;
# 3. the reaction was conducted at 30° C. for 60 min;
# 4. then an equal volume of stop solution (ADP-Glo) was added to the kinase reaction system;
# 5. the mixed solution was incubated at 25° C. for 60 min, and the kinase reaction was then terminated;
# 6. a two-fold volume of detection reagent was then added to each well;
# 7. the mixed solution was incubated at 25° C. for 30 min;
# 8. the compound IC50 value was measured by using a plate reader (Tecan, M1000) and a four-parameter curve was generated in Graphpad Prism.
# [1] = system: M-NFS-60 mouse myeloid leukemia lymphocytes; assay: CSF-1R-related cell proliferation experiment (Cell Titer Glo), M-NFS-60 cells with M-CSF; format: cell-based; settings: Lymphocyte, 72 h, 3 days, CTG, * = average of multiple tests
# Experimental: C. CSF-1R-Related Cell Proliferation Experiment
# Functional effects of compounds on cell proliferation were evaluated by using Cell Titer Glo (CTG) study in the present invention. M-NFS-60 mouse myeloid leukemia lymphocytes (cat. No. CCBJ078) from National Institutes For Food and Drug Control were cultured in the incubator under conditions of RPMI 1640 (Gibco, cat. No. 11875-119), 10% fetal bovine serum (Gibco, 10099-141), human 10 ng/mL M-CSF macrophage colony-stimulating factor (R&D, cat. No. MVN0915101), 37° C., and 5% CO2. Since ATP is an index for viable cell metabolism, CTG (Promega, #G7573) reagent is a homogeneous detection method for detecting the number of viable cells in the culture by quantifying ATP. Therefore, compound-mediated inhibition for cell proliferation/survival was evaluated by quantifying ATP content in cells, and the specific experimental process was as follows:
# 1. The cells were plated into a tissue-culture-medium-treated 96-well plate (Costar #3904) with 5,000 cells/well/80 μL fresh culture medium;
# 2. 24 hours later, 10 μL culture medium containing testing compound with 10-fold of final concentration was added to each well;
# 3. 10 μL of culture medium containing M-CSF with 10-fold of the final concentration was then added to each well;
# 4. dosage effect was evaluated by testing the 3-fold serial dilutions of the compound;
# 5. after the cells were incubated for 3 days at 37° C. and 5% CO2, the inhibition on cell survival was quantified after 50 μL of CTG was added and the luminescence assay was performed;
# 6. the compound concentration leading to half maximal inhibitory (IC50) and the compound concentration leading to absolute half maximal inhibitory (Absolute IC50) were measured by a plate reader (M1000, Tecan) and a four-parameter curve fit in Graphpad Prism 7.
# [2] = read-out: Cytological experiment CSF1R IC50
# [3] = absolute half maximal inhibition, read-out: Cytological experiment CSF-1R Absolute IC50
# CSF-1R, sequence (P07333 20-972): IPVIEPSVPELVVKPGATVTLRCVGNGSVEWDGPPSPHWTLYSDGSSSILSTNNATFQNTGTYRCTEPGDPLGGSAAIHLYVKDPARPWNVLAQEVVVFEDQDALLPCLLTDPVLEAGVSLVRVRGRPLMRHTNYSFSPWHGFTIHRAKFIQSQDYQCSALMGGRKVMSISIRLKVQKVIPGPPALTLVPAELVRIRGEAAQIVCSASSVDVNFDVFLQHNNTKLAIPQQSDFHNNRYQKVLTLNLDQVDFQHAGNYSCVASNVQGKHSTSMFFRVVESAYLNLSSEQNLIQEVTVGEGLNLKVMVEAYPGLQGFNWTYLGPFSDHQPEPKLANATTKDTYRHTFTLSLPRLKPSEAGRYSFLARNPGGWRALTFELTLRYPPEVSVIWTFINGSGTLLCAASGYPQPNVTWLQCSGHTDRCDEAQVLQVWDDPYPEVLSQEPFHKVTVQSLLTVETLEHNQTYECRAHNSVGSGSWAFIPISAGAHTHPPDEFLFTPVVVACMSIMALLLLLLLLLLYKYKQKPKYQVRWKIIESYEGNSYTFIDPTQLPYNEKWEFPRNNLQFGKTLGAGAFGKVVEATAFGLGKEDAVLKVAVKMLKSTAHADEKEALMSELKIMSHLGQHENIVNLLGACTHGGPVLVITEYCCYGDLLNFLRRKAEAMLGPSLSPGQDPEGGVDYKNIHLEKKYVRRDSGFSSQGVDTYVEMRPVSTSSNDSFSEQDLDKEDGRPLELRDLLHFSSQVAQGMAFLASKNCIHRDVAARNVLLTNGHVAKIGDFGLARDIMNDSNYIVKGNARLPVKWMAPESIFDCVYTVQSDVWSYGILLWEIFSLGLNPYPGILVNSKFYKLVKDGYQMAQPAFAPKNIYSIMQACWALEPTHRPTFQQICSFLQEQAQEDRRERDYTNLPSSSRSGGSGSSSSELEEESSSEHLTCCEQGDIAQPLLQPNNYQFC
Compound,IC50 (CSF-1R),"IC50 [1, 2]","IC50 [1, 3]"
"Cc1nc(-c2cnc3n(c2=O)CCN3C)ccc1Oc1ccnc(-c2cnn(C)c2)c1 [Example 3, 1-methyl-6-(6-methyl-5-((2-(1-methyl-1H-pyrazol-4-yl)pyridin-4-yl)oxy)pyridin-2-yl)-2,3-dihydroimidazo[1,2-a]pyrimidin-5(1H)-one]",0.157 µM,0.249 µM,0.185 µM
"Cc1nc(-c2cnc3n(c2=O)CC[C@@H](C)N3)ccc1Oc1ccnc(-c2cnn(C)c2)c1 [Example 6, (R)-8-methyl-3-(6-methyl-5-((2-(1-methyl-1H-pyrazol-4-yl)pyridin-4-yl)oxy)pyridin-2-yl)-6,7,8,9-tetrahydro-4H-pyrimido[1,2-a]pyrimidin-4-one]",0.296 µM,> 2 µM,0.71 µM
CCn1cc(-c2cc(Oc3ccc(-c4cnc5n(c4=O)CCCN5C)nc3C)ccn2)cn1 [Example 8],0.0777 µM,0.151 µM,0.361 µM
